Here are results for 24 compounds from patent publication US9527832B2, “Substituted condensed pyrimidine compounds” (GRÜNENTHAL GMBH, priority 2013, dated 2016).

The target of the assay is T1, human PDE4B1 (Homo sapiens, UniProt Q07343).
T1 construct: host or cells: Sf9 cells
The assay can be described thus: cAMP HTRF assay to determine the activity of hPDE4B1. It is filed as biochemical. The conditions noted are these: for inhibition at 1 µM / Inhibition at 1 μM test concentration [%]: Percentage inhibition of PDE4B at 1 μM test concentration; for IC50: dose response measurements with eight concentrations, reported as ranges, read-out: IC50. How it is done: cAMP HTRF® Assay to Determine the Activity of hPDE4B1
The inhibiting effect of the compounds on the enzyme activity of human PDE4B1 was measured by the quantification of 5′-adenosine monophosphate (5′-AMP), which is formed from 3′,5′-cyclic adenosine monophosphate (cAMP). Human recombinant enzyme, expressed in Sf9 cells, and the HTRF (homogeneous time-resolved fluorescence) detection method were used in the assay.
The test compound or water (control) was mixed with the human recombinant PDE4B1 enzyme (4.8 U) in a buffer consisting of 44.4 mM tris-HCl, 5.28 mM MgCl2, 2.64 mM DTT and 0.044% Tween 20 (pH 7.8). After adding the cAMP enzyme substrate (final concentration 40 nM), the mixture was incubated for 30 minutes at room temperature. Then a fluorescence acceptor (Dye2 marked with cAMP), a fluorescence donor (anti-cAMP antibody marked with a europium cryptate) and the non-specific phosphodiesterase inhibitor IBMX (3-isobutyl-1-methylxanthine; final concentration 1 mM) were added. After 60 minutes the fluorescence transfer, which correlates with the amount of remaining cAMP, was measured with a microplate reader (Rubystar, BMG) at λex=337 nm, λem=620 nm and λem=665 nm. The enzyme activity was calculated from the quotient formed from the measured signal at 665 nm and that at 620 nm. The result was expressed as the percentage inhibition of enzyme activity of the control (without PDE4 inhibitor). The enzyme was omitted for measurement of the basal control.
IC50 values (IC50=concentration causing a half-maximal inhibition of control specific activity) were derived from dose response measurements with eight different concentrations (n=2; N=1-2).
Literature: N. Saldou et al., Comparison of recombinant human PDE4 isoforms: interaction with substrate and inhibitors, Cell. Signal. Vol. 10, No. 6, 427-440, 1998
Background: TR-FRET usually uses a lanthanide donor and a delayed reading to cut background.

Molecules are shown by their SMILES. Where “and” joins values, the source holds several entries; their conditions need not be identical. Identical values can stand only once. Where only a bound is given, the exact number is not on record here.

The inhibition is the relative decrease from the control value, in per cent. One may read the IC50 as the midpoint of a concentration-inhibition curve. Usually Inhibition stands for the change of the read-out against control, counted positive when it falls.

T1 sequence (Q07343 whole entry): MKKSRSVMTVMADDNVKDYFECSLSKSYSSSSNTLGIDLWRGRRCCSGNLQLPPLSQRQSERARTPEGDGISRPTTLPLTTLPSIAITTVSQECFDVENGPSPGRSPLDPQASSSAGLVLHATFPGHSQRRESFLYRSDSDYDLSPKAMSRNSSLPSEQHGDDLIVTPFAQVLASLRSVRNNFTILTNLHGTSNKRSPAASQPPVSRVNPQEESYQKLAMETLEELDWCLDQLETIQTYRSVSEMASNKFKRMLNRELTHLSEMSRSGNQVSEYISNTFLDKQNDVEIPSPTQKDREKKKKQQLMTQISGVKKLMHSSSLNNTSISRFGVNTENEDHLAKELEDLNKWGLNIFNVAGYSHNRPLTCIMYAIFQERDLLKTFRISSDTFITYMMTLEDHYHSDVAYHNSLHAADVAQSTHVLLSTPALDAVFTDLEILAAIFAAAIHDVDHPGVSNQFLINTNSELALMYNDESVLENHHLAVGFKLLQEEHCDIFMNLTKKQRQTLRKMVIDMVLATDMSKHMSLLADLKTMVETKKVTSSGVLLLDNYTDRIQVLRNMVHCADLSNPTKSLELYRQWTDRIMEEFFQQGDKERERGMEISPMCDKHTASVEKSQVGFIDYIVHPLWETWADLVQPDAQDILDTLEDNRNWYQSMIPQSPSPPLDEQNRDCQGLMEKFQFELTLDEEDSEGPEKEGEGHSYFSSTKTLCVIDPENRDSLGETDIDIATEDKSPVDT

On to `O=C(COc1ccc2c(c1)N(c1nc(-c3ccc(Cl)s3)nc3c1CS(=O)(=O)C3)CC2)NC1CC1` [Compound No. 2-61, 2-((1-(2-(5-Chlorothiophen-2-yl)-6,6-dioxido-5,7-dihydrothieno[3,4-d]pyrimidin-4-yl)indolin-6-yl)oxy)-N-cyclopropylacetamide], for which the inhibition at 1 µM stood at 60% and the IC50 was less than 100 nM.

For `CN(C)C(=O)COc1ccc2c(c1)N(c1nc(-c3cccnc3)nc3c1C[S+]([O-])C3)CC2` (stereo not shown) [Compound No. 2-137, N,N-Dimethyl-2-((1-(6-oxido-2-(pyridin-3-yl)-5,7-dihydrothieno[3,4-d]pyrimidin-4-yl)indolin-6-yl)oxy)acetamide], the inhibition at 1 µM worked out at 97% and the IC50 was less than 100 nM.

As to `COc1ccc(-c2nc3c(c(N4CCc5ccc(OCC(=O)N(C)C)cc54)n2)CSC3)cc1Cl` [2-31], the IC50 was less than 100 nM.

`CN(CC1CC1)C(=O)COc1ccc2c(c1)N(c1nc(-c3ccc(Cl)s3)nc3c1CCC3)CC2` [Compound No. 2-67, 2-((1-(2-(5-Chlorothiophen-2-yl)-6,7-dihydro-5H-cyclopenta[d]pyrimidin-4-yl)indolin-6-yl)oxy)-N-(cyclopropylmethyl)-N-methylacetamide]: the inhibition at 1 µM was determined as 6%.

Consider `O=C(COc1ccc2c(c1)N(c1nc(-c3ccc(F)s3)nc3c1C[S+]([O-])C3)CC2)N1CCCC1` (stereo not shown) [Compound No. 2-120, 2-((1-(2-(5-Fluorothiophen-2-yl)-6-oxido-5,7-dihydrothieno[3,4-d]pyrimidin-4-yl)indolin-6-yl)oxy)-1-(pyrrolidin-1-yl)ethanone], for which the inhibition at 1 µM worked out at 116%.

As to `CN(C)C(=O)COc1ccc2c(c1)N(c1nc(-c3ccc4[nH]ccc4c3)nc3c1C[S+]([O-])C3)CC2` (stereo not shown) [2-152, 2-[[1-[2-(1H-Indol-5-yl)-6-oxo-5,7-dihydro-thieno[3,4-d]pyrimidin-4-yl]-2,3-dihydro-1H-indol-6-yl]oxy]-N,N-dimethyl-acetamide], the inhibition at 1 µM worked out at 88% and the IC50 is less than 100 nM.

`N#Cc1ccc(-c2nc3c(c(N4CCc5cc(CC(=O)O)ccc54)n2)CCC3)s1` [Compound No. 1-16, 2-(1-(2-(5-Cyanothiophen-2-yl)-6,7-dihydro-5H-cyclopenta[d]pyrimidin-4-yl)indolin-5-yl)acetic acid]: the inhibition at 1 µM was 95% and the concentration for half-maximal inhibition (IC50) was less than 100 nM.

Regarding `COc1cc(-c2nc3c(c(N4CCc5ccc(OCC(=O)N(C)C)cc54)n2)C[S+]([O-])C3)ccc1Cl` (stereo not shown) [2-111, 2-[[1-[2-(4-Chloro-3-methoxy-phenyl)-6-oxo-5,7-dihydro-thieno[3,4-d]pyrimidin-4-yl]-2,3-dihydro-1H-indol-6-yl]oxy]-N,N-dimethyl-acetamide], the inhibition at 1 µM turned out to be 72% and the IC50 is 100 to 1000 nM.

Take `CN(C)C(=O)COc1ccc2c(c1)N(c1nc(-c3ccnc(F)c3)nc3c1C[S+]([O-])C3)CC2` (stereo not shown) [2-138, 2-((1-(2-(2-Fluoropyridin-4-yl)-6-oxido-5,7-dihydrothieno[3,4-d]pyrimidin-4-yl)indolin-6-yl)oxy)-N,N-dimethylacetamide]: the inhibition at 1 µM is 102% and the “Inhibition at 1 μM test concentration [%]” value is given as 101%.

With `CN(C)C(=O)COc1ccc2c(c1)N(c1nc(-c3ccccc3Cl)nc3c1C[S+]([O-])C3)CC2` (stereo not shown) [2-96, 2-[[1-[2-(2-Chlorophenyl)-6-oxo-5,7-dihydro-thieno[3,4-d]pyrimidin-4-yl]-2,3-dihydro-1H-indol-6-yl]oxy]-N,N-dimethyl-acetamide], the inhibition at 1 µM was 107% and the IC50 is less than 100 nM.

With `CN(C)C(=O)COc1ccc2c(c1)N(c1nc(-c3ccc4c(c3)OCO4)nc3c1C[S+]([O-])C3)CC2` (stereo not shown) [2-145, 2-[[1-[2-(1,3-Benzodioxo1-5-yl)-6-oxo-5,7-dihydro-thieno[3,4-d]pyrimidin-4-yl]-2,3-dihydro-1H-indol-6-yl]oxy]-N,N-dimethyl-acetamide], the inhibition at 1 µM stood at 95% and the IC50 is less than 100 nM.

On to `COc1ccc(-c2nc3c(c(N4CCc5cc(CC(=O)O)ccc54)n2)CCC3)cc1Cl` [Compound No. 1-2, 2-(1-(2-(3-Chloro-4-methoxyphenyl)-6,7-dihydro-5H-cyclopenta[d]-pyrimidin-4-yl)indolin-5-yl)acetic acid], for which the inhibition at 1 µM turned out to be 91% and the IC50 was less than 100 nM.

As to `O=C(O)Cc1ccc2c(ccn2-c2nc(-c3ccc(Cl)s3)nc3c2CCC3)c1` [Compound No. 1-71, 2-(1-(2-(5-Chlorothiophen-2-yl)-6,7-dihydro-5H-cyclopenta[d]pyrimidin-4-yl)-1H-indol-5-yl)acetic acid], the inhibition at 1 µM turned out to be 64% and the 50% inhibitory concentration (IC50) was 100 to 1000 nM.

As for `COc1ccc(-c2nc3c(c(N4CCc5ccc(OCC(=O)N(C)C)cc54)n2)CS(=O)(=O)C3)nc1` [Compound No. 2-143, 2-((1-(2-(5-Methoxypyridin-2-yl)-6,6-dioxido-5,7-dihydrothieno[3,4-d]pyrimidin-4-yl)indolin-6-yl)oxy)-N,N-dimethylacetamide], the inhibition at 1 µM was 87%; the IC50 is 100 to 1000 nM and < 100 nM.

As for `COC(=O)COc1ccc2c(c1)N(c1nc(-c3ccc(Cl)s3)nc3c1CCC3)CC2` [Compound No. 1-79, Methyl 2-((1-(2-(5-chlorothiophen-2-yl)-6,7-dihydro-5H-cyclopenta[d]pyrimidin-4-yl)indolin-6-yl)oxy)acetate], the inhibition at 1 µM came to 88% and the IC50 was in the range of 100 to 1000 nM.

With `CN(C)C(=O)COc1ccc2c(c1)N(c1nc(-c3ccncc3)nc3c1CS(=O)(=O)C3)CC2` [Compound No. 2-132, 2-((1-(6,6-Dioxido-2-(pyridin-4-yl)-5,7-dihydrothieno[3,4-d]pyrimidin-4-yl)indolin-6-yl)oxy)-N,N-dimethylacetamide], the inhibition at 1 µM was 91% and the IC50 was less than 100 nM.

In the case of `CN(C)C(=O)COc1ccc2c(c1)N(c1nc(-c3ccc4occc4c3)nc3c1C[S+]([O-])C3)CC2` (stereo not shown) [2-154, 2-[[1-[2-(Benzofuran-5-yl)-6-oxo-5,7-dihydro-thieno[3,4-d]pyrimidin-4-yl]-2,3-dihydro-1H-indol-6-yl]oxy]-N,N-dimethyl-acetamide], the inhibition at 1 µM amounted to 104% and the IC50 is less than 100 nM.

For `CNC(=O)COc1ccc2c(c1)N(c1nc(-c3ccc(Cl)s3)nc3c1CCC3)CC2` [Compound No. 2-70, 2-((1-(2-(5-Chlorothiophen-2-yl)-6,7-dihydro-5H-cyclopenta[d]pyrimidin-4-yl)indolin-6-yl)oxy)-N-methylacetamide], the inhibition at 1 µM was 23%.

Consider `Cc1ncc(-c2nc3c(c(N4CCc5ccc(OCC(=O)N(C)C)cc54)n2)C[S+]([O-])C3)s1` (stereo not shown) [Compound No. 2-140, N,N-Dimethyl-2-((1-(2-(2-methylthiazol-5-yl)-6-oxido-5,7-dihydrothieno[3,4-d]pyrimidin-4-yl)indolin-6-yl)oxy)acetamide], for which the inhibition at 1 µM amounted to 95% and the IC50 is less than 100 nM.

Take `NC(=O)Cc1ccc2c(c1)CCN2c1nc(-c2ccc(Cl)s2)nc2c1CS(=O)(=O)C2` [Compound No. 3-6, 2-(1-(2-(5-Chlorothiophen-2-yl)-6,6-dioxido-5,7-dihydrothieno[3,4-d]pyrimidin-4-yl)indolin-5-yl)acetamide]: the inhibition at 1 µM is 103% and the IC50 was less than 100 nM.

Turning to `COc1ccc(-c2nc3c(c(N4CCc5ccc(OCC(=O)N(C)C)cc54)n2)C[S+]([O-])C3)cc1` (stereo not shown) [2-20, 2-[[1-[2-(4-Methoxyphenyl)-6-oxo-5,7-dihydro-thieno[3,4-d]pyrimidin-4-yl]-2,3-dihydro-1H-indol-6-yl]oxy]-N,N-dimethyl-acetamide], the “Inhibition at 1 μM test concentration [%]” value amounted to 98%.

`CN(C)C(=O)COc1ccc2c(c1)N(c1nc(-c3cc(F)ccc3F)nc3c1C[S+]([O-])C3)CC2` (stereo not shown) [2-113, 2-[[1-[2-(2,5-Difluoro-phenyl)-6-oxo-5,7-dihydro-thieno[3,4-d]pyrimidin-4-yl]-2,3-dihydro-1H-indol-6-yl]oxy]-N,N-dimethyl-acetamide]: the inhibition at 1 µM is 99% and the concentration for half-maximal inhibition (IC50) is less than 100 nM.

Regarding `O=C(COc1ccc2c(c1)N(c1nc(-c3ccncc3)nc3c1CS(=O)(=O)C3)CC2)N1CCCC1` [Compound No. 2-130, 2-((1-(6,6-Dioxido-2-(pyridin-4-yl)-5,7-dihydrothieno[3,4-d]pyrimidin-4-yl)indolin-6-yl)oxy)-1-(pyrrolidin-1-yl)ethanone], the inhibition at 1 µM came out at 87% and the IC50 was less than 100 nM.

Take `O=C(O)Cc1ccc2c(c1)CCN2c1nc(-c2cc3ccccc3s2)nc2c1C[S+]([O-])C2` (stereo not shown) [Compound No. 1-80, 2-(1-(2-(Benzo[b]thiophen-2-yl)-6-oxido-5,7-dihydrothieno[3,4-d]pyrimidin-4-yl)indolin-5-yl)acetic acid]: the inhibition at 1 µM came to 108% and the concentration for half-maximal inhibition (IC50) was less than 100 nM.
